Measured values published in patent US6673549B1, “Genes expressed in C3A liver cell cultures treated with steroids” (Incyte Corporation, priority 2000, dated 2004).

Test system: human C3A liver cells
Test: Microarray differential gene expression in human C3A liver cell cultures treated with steroids
Type: cell-based
Excerpt: Incyte clones represent template sequences derived from the LWESEQ GOLD assembled human sequence database (Incyte Genomics). In cases where more than one clone was available for a particular template, the 5′-most clone in the template was used on the microarray. The HUMAN GENOME GEM series 1-4 microarrays (Incyte Genomics) contain 28,626 array elements which represent 10,068 annotated clusters and 18,558 unannotated clusters. For the UNIGEM series microarrays (Incyte Genomics), Incyte clones were mapped to non-redundant Unigene clusters (Unigene database (build 46), NCBI; Shuler (1997) J Mol Med 75:694-698), and the 5′ clone with the strongest BLAST alignment (at least 90% identity and 100 bp overlap) was chosen, verified, and used in the construction of the microarray. The UNIGEM V microarray (Incyte Genomics) contains 7075 array elements which represent 4610 annotated genes and 2,184 unannotated clusters.
To construct microarrays, cDNAs were amplified from bacterial cells using primers complementary to vector sequences flanking the cDNA insert. […] Amplified cDNAs were then purified using […]-400 columns (APB). Purified cDNAs were immobilized on polymer-coated glass slides. Glass microscope slides (Corning, Corning N.Y.) were cleaned by ultrasound in 0.1% SDS and acetone, with extensive distilled water washes between and after treatments. Glass slides were etched in 4% hydrofluoric acid (VWR Scientific Products, West Chester Pa.), washed thoroughly in distilled water, and coated with 0.05% aminopropyl silane (Sigma Aldrich) in 95% ethanol. Coated slides were cured in a 110° C. oven. cDNAs were applied to the coated glass substrate using a procedure described in U.S. Pat. No. 5,807,522. One microliter of the cDNA at an average concentration of 100 ng/μl was loaded into the open capillary printing element by a high-speed robotic apparatus which then deposited about 5 nl of cDNA per slide.
Microarrays were UV-crosslinked using a […] UV-crosslinker (Stratagene), and then washed at room temperature once in 0.2% SDS and three times in distilled water. Non-specific binding sites were blocked by incubation of microarrays in 0.2% casein in phosphate buffered saline (Tropix, Bedford Mich.) for 30 minutes at 60° C. followed by washes in 0.2% SDS and distilled water as before.
In all cases, mRNA from untreated early confluent C3A cells were prepared in parallel as described below.
Cells were harvested and lysed in 1 ml of TRIZOL reagent (5×10^6 cells/ml; Life Technologies). Lysates were vortexed thoroughly, incubated at room temperature for 2-3 minutes, and extracted with 0.5 ml chloroform. The extract was mixed, incubated at room temperature for 5 minutes, and centrifuged at 15,000 rpm for 15 minutes at 4° C. The aqueous layer was collected, and an equal volume of isopropanol was added. Samples were mixed, incubated at room temperature for 10 minutes, and centrifuged at 15,000 rpm for 20 minutes at 4° C. The supernatant was removed, and the RNA pellet was washed with 1 ml of 70% ethanol, centrifuged at 15,000 rpm at 4° C., and resuspended in RNAse-free water. The concentration of the RNA was determined by measuring the optical density at 260 nm.
Poly(A) RNA was prepared using an OLIGOTEX mRNA kit (Qiagen) with the following modifications: OLIGOTEX beads were washed in tubes instead of on spin columns, resuspended in elution buffer, and then loaded onto spin columns to recover mRNA. To obtain maximum yield, the mRNA was eluted twice.
Each poly(A) RNA sample was reverse transcribed using MMLV reverse-transcriptase, 0.05 pg/μl oligo-d(T) primer (21mer), 1× first strand buffer, 0.03 units/ul RNAse inhibitor, 500 uM dATP, 500 uM dGTP, 500 uM dTTP, 40 uM dCTP, and 40 uM either dCTP-Cy3 or dCTP-Cy5 (APB).

In the case of CC#C[C@]1(O)CC[C@H]2[C@@H]3CCC4=CC(=O)CCC4=C3[C@@H](c3ccc(N(C)C)cc3)C[C@@]21C [Mifepristone], the “Ave DE [log2] (C3A treated with steroid)” value (Clone ID 4543123) was −1.20 log2 and the “Ave DE [log2] (C3A treated with steroid)” value (Clone ID 5426158) was −0.93 log2.
For C[C@H]1C[C@H]2[C@@H]3CCC4=CC(=O)C=C[C@]4(C)[C@@]3(Cl)[C@@H](O)C[C@]2(C)[C@@]1(O)C(=O)CO [beclomethasane], the “Ave DE [log2] (C3A treated with steroid)” value (Clone ID 5398701) was 0.82 log2.
C[C@H]1C[C@H]2[C@@H]3CCC4=CC(=O)C=C[C@]4(C)[C@@]3(F)[C@@H](O)C[C@]2(C)[C@@]1(O)C(=O)CO [betamethasone] was tested, and the “Ave DE [log2] (C3A treated with steroid)” value (Clone ID 220378) was 0.57 log2, the “Ave DE [log2] (C3A treated with steroid)” value (Clone ID 615776) was 1.11 log2 and the “Ave DE [log2] (C3A treated with steroid)” value (Clone ID 619447) was 0.33 log2. The “Ave DE [log2] (C3A treated with steroid)” value (Clone ID 686993) was 0.51 log2, the “Ave DE [log2] (C3A treated with steroid)” value (Clone ID 689296) was 1.12 log2 and the “Ave DE [log2] (C3A treated with steroid)” value (Clone ID 1323327) was 1.00 log2. For the same compound, the “Ave DE [log2] (C3A treated with steroid)” value (Clone ID 1329625) was 0.91 log2, the “Ave DE [log2] (C3A treated with steroid)” value (Clone ID 1496011) was 0.60 log2 and the “Ave DE [log2] (C3A treated with steroid)” value (Clone ID 1501410) was −0.98 log2. For the same compound, the “Ave DE [log2] (C3A treated with steroid)” value (Clone ID 1600180) was 0.77 log2, the “Ave DE [log2] (C3A treated with steroid)” value (Clone ID 1798594) was 1.37 log2 and the “Ave DE [log2] (C3A treated with steroid)” value (Clone ID 1816768) was 0.24 log2. For the same compound, the “Ave DE [log2] (C3A treated with steroid)” value (Clone ID 1824860) was 0.70 log2, the “Ave DE [log2] (C3A treated with steroid)” value (Clone ID 1857044) was 0.89 log2 and the “Ave DE [log2] (C3A treated with steroid)” value (Clone ID 1951845) was 1.02 log2. The “Ave DE [log2] (C3A treated with steroid)” value (Clone ID 2025128) was 1.20 log2, the “Ave DE [log2] (C3A treated with steroid)” value (Clone ID 2046717) was 0.83 log2 and the “Ave DE [log2] (C3A treated with steroid)” value (Clone ID 2078880) was −0.75 log2. For the same compound, the “Ave DE [log2] (C3A treated with steroid)” value (Clone ID 2170820) was 1.30 log2, the “Ave DE [log2] (C3A treated with steroid)” value (Clone ID 2173002) was 0.98 log2 and the “Ave DE [log2] (C3A treated with steroid)” value (Clone ID 2173973) was 0.81 log2. For the same compound, the “Ave DE [log2] (C3A treated with steroid)” value (Clone ID 2189061) was 0.23 log2, the “Ave DE [log2] (C3A treated with steroid)” value (Clone ID 2222155) was 0.50 log2 and the “Ave DE [log2] (C3A treated with steroid)” value (Clone ID 2343836) was 0.63 log2. The “Ave DE [log2] (C3A treated with steroid)” value (Clone ID 2404746) was 1.46 log2, the “Ave DE [log2] (C3A treated with steroid)” value (Clone ID 2407620) was 0.02 log2 and the “Ave DE [log2] (C3A treated with steroid)” value (Clone ID 2430165) was 0.68 log2. For the same compound, the “Ave DE [log2] (C3A treated with steroid)” value (Clone ID 2482388) was 1.14 log2, the “Ave DE [log2] (C3A treated with steroid)” value (Clone ID 2660756) was 1.26 log2 and the “Ave DE [log2] (C3A treated with steroid)” value (Clone ID 2687356) was 1.23 log2. For the same compound, the “Ave DE [log2] (C3A treated with steroid)” value (Clone ID 2695371) was 0.95 log2, the “Ave DE [log2] (C3A treated with steroid)” value (Clone ID 2703282) was −0.85 log2 and the “Ave DE [log2] (C3A treated with steroid)” value (Clone ID 2734007) was 1.04 log2. For the same compound, the “Ave DE [log2] (C3A treated with steroid)” value (Clone ID 2753065) was 0.75 log2, the “Ave DE [log2] (C3A treated with steroid)” value (Clone ID 3229449) was 1.05 log2 and the “Ave DE [log2] (C3A treated with steroid)” value (Clone ID 3474091) was 0.23 log2. For the same compound, the “Ave DE [log2] (C3A treated with steroid)” value (Clone ID 3528232) was 0.80 log2, the “Ave DE [log2] (C3A treated with steroid)” value (Clone ID 3729593) was 0.55 log2 and the “Ave DE [log2] (C3A treated with steroid)” value (Clone ID 3876612) was 0.19 log2. The “Ave DE [log2] (C3A treated with steroid)” value (Clone ID 3973687) was 1.47 log2, the “Ave DE [log2] (C3A treated with steroid)” value (Clone ID 4087621) was 1.09 log2 and the “Ave DE [log2] (C3A treated with steroid)” value (Clone ID 4215034) was 1.50 log2. For the same compound, the “Ave DE [log2] (C3A treated with steroid)” value (Clone ID 4403805) was 1.19 log2, the “Ave DE [log2] (C3A treated with steroid)” value (Clone ID 4855265) was 1.24 log2 and the “Ave DE [log2] (C3A treated with steroid)” value (Clone ID 5206821) was 0.50 log2. The “Ave DE [log2] (C3A treated with steroid)” value (Clone ID 5398701) was 1.10 log2, the “Ave DE [log2] (C3A treated with steroid)” value (Clone ID 5521873) was 0.77 log2 and the “Ave DE [log2] (C3A treated with steroid)” value (Clone ID 5543385) was 1.15 log2.
